Measured values: patent publication US7781452B2, “Imidazopyridine compound” (Eisai R&D Management Co., Ltd., priority 2004, dated 2010)

How the values were obtained:
[1] = system: Gastric Acid Secretion in Rats; assay: Inhibitory effects on gastric acid secretion in pylorus-ligated, histamine-stimulated rats; format: in vivo, rat; settings: male SD rats, 10 mg/kg into the duodenum, histamine 20 mg/kg subcutaneously, eight hours after administration
Experimental: Seven-week-old male SD rats fasted from the day before experiments were used. The rats were subjected to celiotomy along the median line under ether anesthesia, and the pylorus was ligated. Test compounds were dissolved or suspended in 0.5% methyl-cellulose solution (solvent) and prepared the concentration of 5 mg/ml. […] Then the abdomen was sutured. Eight hours after the administration of solvent or test compound, rat was sacrificed and stomach was isolated for the measurement of the volume of gastric juice. After the volume of gastric juice was determined, the acid concentration was measured using 0.25 ml of gastric juice by titration against 0.04 mol/l NaOH solution to pH 7.0. The acid output was calculated as (volume of gastric juice)×(acid concentration). The inhibition rate (%) was calculated according to the formula shown below. The number of animals of each experimental group is four. Inhibition rate (%)=100×(A−B)/A • A: acid output in solvent administered group • B: acid output in test compound administered group

CYP1A1 = assay: Cytochrome P450 (CYP) gene induction in human cryopreserved hepatocytes, CYP1A1 mRNA; format: in vitro ADME; settings: for CYP1A1 mRNA induction potency, % of the positive control (100%): 48-hr exposure
Experimental: (§1) Human cryopreserved hepatocytes purchased from In Vitro Technology were quickly thawed at 37° C. After ice-cold William's E (WE) medium supplemented with 10% FCS, penicillin (100 U/mL), streptomycin (100 μg/mL) and glutamine (2 mM) (WE medium) was gradually added to hepatocytes, the cells were centrifuged at 500 rpm for 5 min at 4° C. The supernatant was removed and the cells were resuspended in WE medium to obtain 5×10^5 cells/mL. The cells were plated into collagen-coated 48-well plates (1×10^5 cells/cm^2) and cultured at 37° C. and 5% CO2 for about 24 hr.
(§2) Medium was replaced with Hepato-STIM (trademark, BD Biosciences) supplemented with EGF, penicillin (100 U/mL), streptomycin (100 μg/mL) and glutamine (2 mM) (HS medium) and the cells were cultured for about 24 hr. At about 48 hr of culture after seeding, the cells were treated with the test compounds and β-naphtoflavone (β-NF, positive control for human CYP1A1 and CYP1A2, SIGMA) prepared by HS medium for about 48 hr. Medium was changed daily. The final concentration of β-NF was set to 10 μM. All compounds were dissolved in dimethylsulfoxide (DMSO, Wako), resulting in a final vehicle concentration of 0.1% (v/v). To the control cells, HS medium containing 0.1% DMSO was added.
(§3) After 48-hr exposure, cells were washed once using PBS, and total RNA was purified using Qiagen RNeasy Mini Kit (Qiagen) according to the manufacturer's instruction. Purified total RNA was then used as template for first strand cDNA synthesis. For reverse transcription (RT) reaction, Oligo dT was employed. The RT reaction was carried using TaqMan Reverse Transcription Reagents (Applied Biosystems) at 25° C. for 10 min followed by 60-min reaction at 48° C., and then the enzyme was inactivated at 95° C. for 5 min in Gene Amp PCR System 9700. The resulting cDNA was subjected to polymerase chain reaction (PCR) in ABI7700 Sequence Detection System (Applied Biosystems). For the mRNA analyses of CYP1A1 and GAPDH, SYBR Green PCR Core Reagents kit (Applied Biosystems) was used, and CYP1A2 mRNA was quantified using TaqMan PCR Core Reagents kit (Applied Biosystems).
(§4) The amount of mRNA of CYP1A1 or CYP1A2 was divided by that of GAPDH. Then, the ratio (fold) of the values obtained in test compounds (X) and positive control (P) against that in control was calculated. The induction potency of test compound (%) was obtained by following equation: Induction potency of test compound (%)=100×(X−1)/(P−1) <Results>

CYP1A2 = assay: Cytochrome P450 (CYP) gene induction in human cryopreserved hepatocytes, CYP1A2 mRNA; format: in vitro ADME; settings: for CYP1A2 mRNA induction potency, % of the positive control (100%): 48-hr exposure
Experimental: as §1, §2, §3, §4

[2] = 10 μM, normalised to GAPDH, vs 0.1% DMSO control

For `COc1ccnc(C[S+]([O-])c2nc3cc(C)c(OCC(F)F)nc3[n-]2)c1C.[Na+]` (stereo not drawn) [Example 3, 5-(2,2-Difluoroethoxy)-2-(((4-methoxy-3-methyl-2-pyridinyl)methyl)sulfinyl)-6-methyl-3H-imidazo[4,5-b]pyridine Sodium salt], the “Inhibition rate(%) of acid output” value [1] was 85%.

In the case of `COc1ccnc(C[S+]([O-])c2nc3cc(C)c(OCC(F)(F)F)nc3[n-]2)c1C.[Na+]` (stereo not drawn) [Example 2, 2-(((4-Methoxy-3-methyl-2-pyridinyl)methyl]sulfinyl)-6-methyl-5-(2,2,2-trifluoroethoxy)-3H-imidazo[4,5-b]pyridine Sodium salt], the “Inhibition rate(%) of acid output” value [1] is reported as 86%.

`COc1ccnc(C[S+]([O-])c2nc3cc(C)c(OC)nc3[n-]2)c1C.[Na+]` (stereo not drawn) [Example 1, 5-Methoxy-2-(((4-methoxy-3-methyl-2-pyridinyl)methyl)sulfinyl)-6-methyl-3H-imidazo[4,5-b]pyridineSodium salt] was tested, and the “Inhibition rate(%) of acid output” value [1] was 79%, the “CYP1A1 mRNA induction potency, % of the positive control (100%)” value (“CYP1A1 mRNA induction potency, %” for short) (CYP1A1; 0.3 μM) was 2.03% and the “CYP1A1 mRNA induction potency, %” value (CYP1A1; 1 μM) was 8.02%. For the same compound, the “CYP1A1 mRNA induction potency, %” value (CYP1A1; 3 μM) was 11.27%, the “CYP1A1 mRNA induction potency, %” value (CYP1A1; 10 μM) was 18.46% and the “CYP1A2 mRNA induction potency, % of the positive control (100%)” value (shortened to “CYP1A2 mRNA induction potency, %”) (CYP1A2; 0.3 μM) was 8.36%. The “CYP1A2 mRNA induction potency, %” value (CYP1A2; 1 μM) was 12.16%, the “CYP1A2 mRNA induction potency, %” value (CYP1A2; 3 μM) was 11.78% and the “CYP1A2 mRNA induction potency, %” value (CYP1A2; 10 μM) was 29.18%.

With `O=c1cc(-c2ccccc2)oc2ccc3ccccc3c12` [βNF, β-naphtoflavone, reference compound] the “CYP1A1 mRNA induction potency, %” value (CYP1A1; 10 μM) was 100%, the “CYP1A1 mRNA fold induction as compared with control (figures in parentheses)” value (CYP1A1; [2]) was 79.97 fold and the “CYP1A2 mRNA induction potency, %” value (CYP1A2; 10 μM) was 100%. For the same compound, the “CYP1A2 mRNA fold induction as compared with control (figures in parentheses)” value (CYP1A2; [2]) was 14.16 fold.
